# ChEMBL document CHEMBL3739396, “5-Aryl-1-imino-1-oxo-[1,2,4]thiadiazines” (ACS Med Chem Lett, 2015)
# Target: Beta-secretase 1 (Homo sapiens, UniProt P56817)
# Experiment: Inhibition of human BACE1 in HEK293 cells expressing APP assessed as decrease in amyloid beta-40 level after 18 to 20 hrs
# Assay type: cell-based
# Sequence of Beta-secretase 1 (P56817 whole entry): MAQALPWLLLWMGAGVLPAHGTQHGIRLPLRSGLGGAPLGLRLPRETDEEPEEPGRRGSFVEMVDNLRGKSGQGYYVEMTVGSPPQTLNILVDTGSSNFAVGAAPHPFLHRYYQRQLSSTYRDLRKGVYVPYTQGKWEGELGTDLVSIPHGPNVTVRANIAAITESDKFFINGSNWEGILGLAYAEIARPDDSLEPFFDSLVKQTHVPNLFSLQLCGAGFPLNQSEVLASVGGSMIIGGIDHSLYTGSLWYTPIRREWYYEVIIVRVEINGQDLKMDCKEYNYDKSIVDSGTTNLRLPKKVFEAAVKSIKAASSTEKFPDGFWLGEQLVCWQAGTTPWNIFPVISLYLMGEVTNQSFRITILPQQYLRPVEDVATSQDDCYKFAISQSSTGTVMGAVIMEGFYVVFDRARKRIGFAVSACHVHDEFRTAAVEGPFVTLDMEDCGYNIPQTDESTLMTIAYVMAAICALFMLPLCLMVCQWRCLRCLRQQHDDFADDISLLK
row,IC50 [nM],Structure (SMILES)
1,2,C[C@@]1(c2cc(NC(=O)c3ccc(C#N)cn3)ccc2F)C[S@]2(=O)=NCCCCN2C(N)=N1
2,9.5,C[C@@]1(c2cc(-c3cc(-c4ncc(Cl)cn4)no3)ccc2F)C[S@]2(=O)=NCCCCN2C(N)=N1
3,9.5,C[C@@]1(c2cc(-c3cn(-c4ccc(C#N)cn4)nn3)ccc2F)C[S@]2(=O)=NCCCCN2C(N)=N1
